In brackets after ≈: the same amount, converted by molar mass. Bridge positions count the residues as written; N and C are the ends. Square brackets hold non-standard residues; d marks the D form. Peptide text beside a SMILES is read from it. * marks the point of attachment. X2 = CC[C@H](C)CCCCC(=O)*; dDab = NCC[C@@H](N)C(=O)O; Dab = NCC[C@H](N)C(=O)O
How the values were obtained:
Staphylococcus aureus [1] = assay: Antimicrobial activity against Staphylococcus aureus ATCC 25923 assessed as inhibition of bacterial growth measured after 20 hrs by CLSI protocol based Muller Hinton broth assay; format: functional
Enterococcus gallinarum = assay: Antimicrobial activity against Enterococcus gallinarum ATCC 49573 assessed as inhibition of bacterial growth measured after 20 hrs by CLSI protocol based Muller Hinton broth assay; format: functional
Escherichia coli = assay: Antimicrobial activity against Escherichia coli ATCC 25922 assessed as inhibition of bacterial growth measured after 20 hrs by CLSI protocol based Muller Hinton broth assay; format: functional
Pseudomonas aeruginosa = assay: Antimicrobial activity against Pseudomonas aeruginosa ATCC 27853 assessed as inhibition of bacterial growth measured after 20 hrs by CLSI protocol based Muller Hinton broth assay; format: functional
Enterococcus faecalis = assay: Antimicrobial activity against Enterococcus faecalis ATCC 19433 assessed as inhibition of bacterial growth measured after 20 hrs by CLSI protocol based Muller Hinton broth assay; format: functional
Staphylococcus aureus [2] = assay: Antimicrobial activity against Methicillin-resistant Staphylococcus aureus ATCC 43300 assessed as inhibition of bacterial growth measured after 20 hrs by CLSI protocol based Muller Hinton broth assay; format: functional
Acinetobacter baumannii = assay: Antimicrobial activity against Acinetobacter baumannii ATCC 19606 assessed as inhibition of bacterial growth measured after 20 hrs by CLSI protocol based Muller Hinton broth assay; format: functional
[3] = Hemolytic activity in Sprague-Dawley rat Red blood cells at 100 ug/ml incubated for 1 hrs by absorbance based analysis; format: toxicity, cell-based; conditions: erythrocyte, dose 100 µg/ml
L929 = assay: Cytotoxicity against mouse L929 cells assessed as reduction in cell viability at 25 microg/mL incubated for 24 hrs by MTT assay; format: toxicity, cell-based; conditions: l929, 24 h, dose 25 µg/ml
Cell membrane = assay: Disruption of cell membrane in methicillin-resistant Staphylococcus aureus assessed as PI-positive bacteria at 8 times MIC measured after 30 mins by PI staining based flow cytometry analysis (reference value: 7.49 %); format: subcellular
[4] = Hemolytic activity in Sprague-Dawley rat Red blood cells at 200 ug/ml incubated for 1 hr by absorbance based analysis; format: toxicity, cell-based; conditions: erythrocyte, dose 200 µg/ml

Row | SMILES | MIC (Staphylococcus aureus [1]) [µg/mL] | also measured
1 | N=C(N)NCCC[C@H](N)C(=O)N1CCN(c2cc3c(cc2F)c(=O)c(C(=O)O)cn3C2CC2)CC1 | ≥ 12.5 | 
2 | CCCCCCCCCCCCNC(=O)[C@H](CCCCN)NC(=O)[C@H](CCCCN)NC(=O)[C@H](CCCCN)NC(=O)CCCCCCCCCCCNC(=O)CCC(=O)N1CCN(c2cc3c(cc2F)c(=O)c(C(=O)O)cn3C2CC2)CC1 | 3.12 (≈ 2.65 µM) | MIC (Enterococcus gallinarum): 6.25 µg/mL (≈ 5.29 µM); MIC (Escherichia coli): 12.5 µg/mL (≈ 10.6 µM); MIC (Pseudomonas aeruginosa): 6.25 µg/mL (≈ 5.29 µM); MIC (Enterococcus faecalis): 12.5 µg/mL (≈ 10.6 µM); MIC (Staphylococcus aureus [2]): 6.25 µg/mL (≈ 5.29 µM); MIC (Acinetobacter baumannii): 6.25 µg/mL (≈ 5.29 µM); Activity [3]: Toxic; Activity (L929): Toxic
3 | CCCCCCNC(=O)[C@H](CCCCN)NC(=O)c1ccc(C(=O)N2CCN(c3cc4c(cc3F)c(=O)c(C(=O)O)cn4C3CC3)CC2)cc1 | 25 (≈ 36.2 µM) | 
4 | CCCCCCCCCCCCCCNC(=O)[C@H](CCCCN)NC(=O)c1ccc(C(=O)N2CCN(c3cc4c(cc3F)c(=O)c(C(=O)O)cn4C3CC3)CC2)cc1 | 25 (≈ 31.1 µM) | 
5 | CCCCCCCCCCCC(=O)N[C@@H](CCCNC(=N)N)C(=O)N1CCN(c2cc3c(cc2F)c(=O)c(C(=O)O)cn3C2CC2)CC1 | 6.25 (≈ 9.33 µM) | 
6 | CCCCCCCCCC(=O)N[C@@H](CCCCN)C(=O)N1CCN(c2cc3c(cc2F)c(=O)c(C(=O)O)cn3C2CC2)CC1 | 6.25 (≈ 10.2 µM) | 
7 | O=C(CC12CC3CC(CC(C3)C1)C2)N[C@@H](Cc1c[nH]cn1)C(=O)N1CCN(c2cc3c(cc2F)c(=O)c(C(=O)O)cn3C2CC2)CC1 | 6.25 (≈ 9.69 µM) | 
8 | NCCCC[C@H](NC(=O)c1ccc(C(=O)N2CCN(c3cc4c(cc3F)c(=O)c(C(=O)O)cn4C3CC3)CC2)cc1)C(=O)NCc1ccc(-c2ccccc2)cc1 | 50 (≈ 64.7 µM) | 
9 | CCCCCCCCCCCC(=O)N[C@@H](Cc1c[nH]cn1)C(=O)N1CCN(c2cc3c(cc2F)c(=O)c(C(=O)O)cn3C2CC2)CC1 | 6.25 (≈ 9.6 µM) | 
10 | CCCCCCCCCCCCNC(=O)[C@H](CCCCN)NC(=O)c1ccc(C(=O)N2CCN(c3cc4c(cc3F)c(=O)c(C(=O)O)cn4C3CC3)CC2)cc1 | 50 (≈ 64.5 µM) | 
11 | CCCCCCCCNC(=O)[C@H](CCCCN)NC(=O)c1ccc(C(=O)N2CCN(c3cc4c(cc3F)c(=O)c(C(=O)O)cn4C3CC3)CC2)cc1 | 12.5 (≈ 17.4 µM) | 
12 | CC(C)CCCCC(=O)N[C@@H](CCN)C(=O)N[C@H](C(=O)N[C@@H](CCN)C(=O)N[C@H]1CCNC(=O)[C@H]([C@@H](C)O)NC(=O)[C@H](CCN)NC(=O)[C@H](CCN)NC(=O)[C@H](CC(C)C)NC(=O)[C@@H](Cc2ccccc2)NC(=O)[C@@H](CCN)NC1=O)[C@@H](C)O.CC[C@H](C)CCCCC(=O)N[C@@H](CCN)C(=O)N[C@H](C(=O)N[C@@H](CCN)C(=O)N[C@H]1CCNC(=O)[C@H]([C@@H](C)O)NC(=O)[C@H](CCN)NC(=O)[C@H](CCN)NC(=O)[C@H](CC(C)C)NC(=O)[C@@H](Cc2ccccc2)NC(=O)[C@@H](CCN)NC1=O)[C@@H](C)O (X2-[Dab]T[Dab][Dab][dDab][dF]L[Dab][Dab]T; lactam 4-C) |  | Activity (Cell membrane): 57.2%
13 | N[C@@H](Cc1c[nH]cn1)C(=O)N1CCN(c2cc3c(cc2F)c(=O)c(C(=O)O)cn3C2CC2)CC1 | ≥ 12.5 | 
14 | NCCCC[C@H](NC(=O)c1ccc(C(=O)N2CCN(c3cc4c(cc3F)c(=O)c(C(=O)O)cn4C3CC3)CC2)cc1)C(=O)NCc1ccccc1Cl | 25 (≈ 34.2 µM) | 
15 | NCCCC[C@H](N)C(=O)N1CCN(c2cc3c(cc2F)c(=O)c(C(=O)O)cn3C2CC2)CC1 | ≥ 12.5 | 
16 | O=C(Cc1ccc(-c2ccccc2)cc1)N[C@@H](Cc1c[nH]cn1)C(=O)N1CCN(c2cc3c(cc2F)c(=O)c(C(=O)O)cn3C2CC2)CC1 | 6.25 (≈ 9.43 µM) | 
17 | CCCCCCCCCNC(=O)[C@H](CCCCN)NC(=O)c1ccc(C(=O)N2CCN(c3cc4c(cc3F)c(=O)c(C(=O)O)cn4C3CC3)CC2)cc1 | 6.25 (≈ 8.53 µM) | 
18 | CCCCCNC(=O)[C@H](CCCCN)NC(=O)c1ccc(C(=O)N2CCN(c3cc4c(cc3F)c(=O)c(C(=O)O)cn4C3CC3)CC2)cc1 | 25 (≈ 36.9 µM) | 
19 | NCCCC[C@H](NC(=O)c1ccc(C(=O)N2CCN(c3cc4c(cc3F)c(=O)c(C(=O)O)cn4C3CC3)CC2)cc1)C(=O)NCc1c(F)cccc1Cl | 25 (≈ 33.4 µM) | 
20 | NCCCC[C@H](NC(=O)c1ccc(C(=O)N2CCN(c3cc4c(cc3F)c(=O)c(C(=O)O)cn4C3CC3)CC2)cc1)C(=O)NCc1ccccc1 | 25 (≈ 35.9 µM) | 
21 | NCCCC[C@H](NC(=O)c1ccc(C(=O)N2CCN(c3cc4c(cc3F)c(=O)c(C(=O)O)cn4C3CC3)CC2)cc1)C(=O)NCc1c(Cl)cccc1Cl | 12.5 (≈ 16.3 µM) | 
22 | NCCCC[C@H](NC(=O)c1ccc(C(=O)N2CCN(c3cc4c(cc3F)c(=O)c(C(=O)O)cn4C3CC3)CC2)cc1)C(=O)N[C@@H](CCCCN)C(=O)N[C@@H](CCCCN)C(=O)NCc1ccc(-c2ccccc2)cc1 | 1.56 (≈ 1.52 µM) | MIC (Enterococcus gallinarum): 50 µg/mL (≈ 48.6 µM); MIC (Escherichia coli): 25 µg/mL (≈ 24.3 µM); MIC (Pseudomonas aeruginosa): 25 µg/mL (≈ 24.3 µM); Activity [4]: Non-toxic; MIC (Enterococcus faecalis): 50 µg/mL (≈ 48.6 µM); MIC (Staphylococcus aureus [2]): 6.25 µg/mL (≈ 6.07 µM); MIC (Acinetobacter baumannii): 25 µg/mL (≈ 24.3 µM)

Now from value to compound, other results behind:

Row | MIC (Staphylococcus aureus [1]) [µg/mL] | SMILES | also measured
23 | 6.25 (≈ 7.14 µM) | CCCCCCCCCCNC(=O)[C@H](CCCCN)NC(=O)[C@H](CCCCN)NC(=O)c1ccc(C(=O)N2CCN(c3cc4c(cc3F)c(=O)c(C(=O)O)cn4C3CC3)CC2)cc1 | 
24 | 3.12 (≈ 3.16 µM) | CCCCCCCCCNC(=O)[C@H](CCCCN)NC(=O)[C@H](CCCCN)NC(=O)[C@H](CCCCN)NC(=O)c1ccc(C(=O)N2CCN(c3cc4c(cc3F)c(=O)c(C(=O)O)cn4C3CC3)CC2)cc1 | 
25 | 3.12 (≈ 3.11 µM) | CCCCCCCCCCNC(=O)[C@H](CCCCN)NC(=O)[C@H](CCCCN)NC(=O)[C@H](CCCCN)NC(=O)c1ccc(C(=O)N2CCN(c3cc4c(cc3F)c(=O)c(C(=O)O)cn4C3CC3)CC2)cc1 | 
26 | 6.25 (≈ 6.26 µM) | CCCCCCCCCNC(=O)[C@H](Cc1c[nH]cn1)NC(=O)[C@H](CCCCN)NC(=O)[C@H](CCCCN)NC(=O)c1ccc(C(=O)N2CCN(c3cc4c(cc3F)c(=O)c(C(=O)O)cn4C3CC3)CC2)cc1 | 
27 | 6.25 (≈ 7.26 µM) | CCCCCCCCCNC(=O)[C@H](CCCCN)NC(=O)[C@H](CCCCN)NC(=O)c1ccc(C(=O)N2CCN(c3cc4c(cc3F)c(=O)c(C(=O)O)cn4C3CC3)CC2)cc1 | 
28 | > 50 | CCCCCCCCCCCCCCCCNC(=O)[C@H](CCCCN)NC(=O)[C@H](CCCCN)NC(=O)[C@H](CCCCN)NC(=O)c1ccc(C(=O)N2CCN(c3cc4c(cc3F)c(=O)c(C(=O)O)cn4C3CC3)CC2)cc1 | 
29 | 3.12 (≈ 3.07 µM) | CCCCCCCCCNC(=O)[C@H](CCCCN)NC(=O)[C@H](CCCCN)NC(=O)[C@H](CCCNC(=N)N)NC(=O)c1ccc(C(=O)N2CCN(c3cc4c(cc3F)c(=O)c(C(=O)O)cn4C3CC3)CC2)cc1 | 
30 | 6.25 (≈ 5.55 µM) | CCCCCCCCCCCCNC(=O)[C@H](CCCCN)NC(=O)[C@H](CCCCN)NC(=O)[C@H](CCCCN)NC(=O)CCNC(=O)CCNC(=O)CCC(=O)N1CCN(c2cc3c(cc2F)c(=O)c(C(=O)O)cn3C2CC2)CC1 | 
31 | 3.12 (≈ 3.07 µM) | CCCCCCCCCNC(=O)[C@H](CCCNC(=N)N)NC(=O)[C@H](CCCCN)NC(=O)[C@H](CCCCN)NC(=O)c1ccc(C(=O)N2CCN(c3cc4c(cc3F)c(=O)c(C(=O)O)cn4C3CC3)CC2)cc1 | 
32 | > 50 | CCCCCCCCCCCCNC(=O)[C@H](CCCCN)NC(=O)[C@H](CCCCN)NC(=O)[C@H](CCCCN)NC(=O)CCNC(=O)CCC(=O)N1CCN(c2cc3c(cc2F)c(=O)c(C(=O)O)cn3C2CC2)CC1 | 
33 | > 50 | CCCCCCCCCNC(=O)[C@H](CCCNC(=N)N)NC(=O)[C@H](CCCNC(=N)N)NC(=O)[C@H](CCCNC(=N)N)NC(=O)c1ccc(C(=O)N2CCN(c3cc4c(cc3F)c(=O)c(C(=O)O)cn4C3CC3)CC2)cc1 | 
34 | 3.12 (≈ 3.2 µM) | CCCCCCCCNC(=O)[C@H](CCCCN)NC(=O)[C@H](CCCCN)NC(=O)[C@H](CCCCN)NC(=O)c1ccc(C(=O)N2CCN(c3cc4c(cc3F)c(=O)c(C(=O)O)cn4C3CC3)CC2)cc1 | 
35 | 6.25 (≈ 6.06 µM) | CCCCCCCCCCCCNC(=O)[C@H](CCCCN)NC(=O)[C@H](CCCCN)NC(=O)[C@H](CCCCN)NC(=O)c1ccc(C(=O)N2CCN(c3cc4c(cc3F)c(=O)c(C(=O)O)cn4C3CC3)CC2)cc1 | 
36 | 25 (≈ 27.7 µM) | CCCCCCCCCCCCNC(=O)[C@H](CCCCN)NC(=O)[C@H](CCCCN)NC(=O)c1ccc(C(=O)N2CCN(c3cc4c(cc3F)c(=O)c(C(=O)O)cn4C3CC3)CC2)cc1 | 
37 | 12.5 (≈ 11.1 µM) | CCCCCCCCCCCCNC(=O)[C@H](CCCCN)NC(=O)[C@H](CCCCN)NC(=O)[C@H](CCCCN)NC(=O)COCCOCCNC(=O)CCC(=O)N1CCN(c2cc3c(cc2F)c(=O)c(C(=O)O)cn3C2CC2)CC1 | 
38 | 12.5 (≈ 11.3 µM) | CCCCCCCCCCCCNC(=O)[C@H](CCCCN)NC(=O)[C@H](CCCCN)NC(=O)[C@H](CCCCN)NC(=O)CCCCCCNC(=O)CCC(=O)N1CCN(c2cc3c(cc2F)c(=O)c(C(=O)O)cn3C2CC2)CC1 | 
39 | > 100 | CCCCCCCCCCCCCCCCNC(=O)[C@H](CCCCN)NC(=O)c1ccc(C(=O)N2CCN(c3cc4c(cc3F)c(=O)c(C(=O)O)cn4C3CC3)CC2)cc1 | 
40 | > 50 | CCCCCCCCCCCCNC(=O)[C@H](CCCCN)NC(=O)[C@H](CCCCN)NC(=O)[C@H](CCCCN)NC(=O)CCC(=O)N1CCN(c2cc3c(cc2F)c(=O)c(C(=O)O)cn3C2CC2)CC1 | 
